Test results taken from ChEMBL document CHEMBL4622926, “Fibroblast growth factor receptor modulators employing diamines with reduced phospholipidosis-inducing potential” (Bioorg Med Chem, 2020).

How the values were obtained:
[1] = Partition coefficient, logP of compound by RP-HPLC analysis; format: physicochemical; conditions: octanol/water
Rattus norvegicus [2] = species on record: Rattus norvegicus; assay: Modulation of FGFR in Wistar rat cerebrocortical/hippocampal neuronal cells assessed as protection against glutamate-induced neuronal cell death by measuring cell survival at 10 uM pretreated for 24 hrs followed by glutamate-stimulation by CCK8 assay relative to SUN13837
CYP3A4 = CYP3A4 (Homo sapiens, UniProt P08684); assay: (§1) Mechanism based inactivation of CYP3A4 in human liver microsome assessed as remaining activity at 100 uM preincubated for 30 mins followed testosterone addition and measured after 10 mins by LC-MS/MS analysis relative to control; format: ADME, microsomes; conditions: human liver microsomes, probe testosterone, read-out: Activity
Sequence of CYP3A4 (P08684 whole entry): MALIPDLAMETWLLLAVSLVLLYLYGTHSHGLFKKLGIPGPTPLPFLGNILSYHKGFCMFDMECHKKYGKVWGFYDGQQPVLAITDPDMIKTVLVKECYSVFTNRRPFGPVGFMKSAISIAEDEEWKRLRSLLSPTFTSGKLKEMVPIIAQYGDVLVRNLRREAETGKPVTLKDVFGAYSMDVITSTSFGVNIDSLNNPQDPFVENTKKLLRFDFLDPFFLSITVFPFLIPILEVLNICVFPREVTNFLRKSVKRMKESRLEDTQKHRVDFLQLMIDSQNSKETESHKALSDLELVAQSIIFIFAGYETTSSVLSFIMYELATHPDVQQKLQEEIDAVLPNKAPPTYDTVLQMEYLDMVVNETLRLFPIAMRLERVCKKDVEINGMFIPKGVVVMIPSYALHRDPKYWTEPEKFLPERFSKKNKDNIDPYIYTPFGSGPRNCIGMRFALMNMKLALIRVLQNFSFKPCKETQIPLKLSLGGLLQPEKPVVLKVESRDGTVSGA

[3] = Ratio of drug level in Crl:CD(SD) rat brain to plasma at 1 mg/kg, iv measured after 1 hr by LC-MS/MS analysis; format: ADME, organism-based
[4] = AUC in Crl:CD(SD) rat at 5 mg/kg, po by LC-MS/MS analysis; format: ADME, organism-based; conditions: in vivo
[5] = Volume of distribution in Crl:CD(SD) rat at 1 mg/kg, iv by LC-MS/MS analysis; format: ADME, organism-based; conditions: in vivo
[6] = Elimination half life in Crl:CD(SD) rat at 1 mg/kg, iv by LC-MS/MS analysis; format: ADME, organism-based; conditions: in vivo, read-out: beta t1/2 (converted)
[7] = Oral bioavailability in Crl:CD(SD) rat at 5 mg/kg by LC-MS/MS analysis; format: ADME, organism-based; conditions: in vivo
[8] = Clearance in Crl:CD(SD) rat at 1 mg/kg, iv by LC-MS/MS analysis; format: ADME, organism-based; conditions: in vivo
Cytochrome P450 3A4 = Cytochrome P450 3A4 (Homo sapiens, UniProt P08684); assay: as §1; format: ADME, microsomes; conditions: microsomes, 10 min, 100 µM
Sequence of Cytochrome P450 3A4 (P08684 whole entry): as above

[9] = AUC in Crl:CD(SD) rat at 10 mg/kg, po by LC-MS/MS analysis; format: ADME, organism-based; conditions: in vivo
[10] = Drug metabolism in human liver microsomes assessed as carboxylesterase-mediated hydrolytic rate for diamine compound formation at 100 uM incubated for 60 mins in absence of NADPH measured per mg protein by LC-MS/MS analysis; format: ADME; conditions: 1 h
Rattus norvegicus [11] = assay: Neuroprotective activity against microsphere induced Crl:CD(SD) rat cerebral embolism model assessed as recovery of motor coordination by measuring latency time at 1 mg/kg, po administered daily for 10 days starting from day 1 post microsphere injection and measured at 2 weeks after microsphere injection by rotarod test (reference value: 189.1 secs); format: functional
[12] = Oral bioavailability in Crl:CD(SD) rat at 10 mg/kg by LC-MS/MS analysis; format: ADME, organism-based; conditions: in vivo

Structure (SMILES) | logP ([1]; read-out: logP) | activity at 10 min, 100 µM (CYP3A4) | Activity (Rattus norvegicus [2]) | other results
Cc1nc(OCC(=O)N(C)[C@H]2CN(Cc3ccccc3)C[C@@H]2O)nc(C)c1N (relative stereo) | 2.4 | 55% | 93% | 
CN(C(=O)COc1ccc(Cl)nn1)C1CCN(Cc2ncccc2F)CC1 | 2.6 | 100% | 44% | 
Cc1nc(OCC(=O)N2CC[C@@H]3[C@H]2CN3Cc2ccccc2)nc(C)c1N | 2.8 | 40% | 87% | 
Cc1nc(OCC(=O)N(C)C2CN(Cc3ccccc3)C2)nc(C)c1N | 2.1 | 58% | 127% | 
Cc1nc(OCC(=O)N(C)C2CN(Cc3ccccc3)CC2F)nc(C)c1N (centres undefined) | 3.7 |  |  | Activity (Cytochrome P450 3A4): 16%
CN(C(=O)COc1ccc(Cl)nn1)C1CCN(CC(F)(F)F)CC1 | 4 | 100% | 74% | 
Cc1nc(OCC(=O)N(C)C2CN(Cc3ccccc3)CC2F)nc(C)c1N.Cl (centres undefined) |  |  |  | logP [1]: 4.8; Activity (Cytochrome P450 3A4): 96%
Cc1nc(OCC(=O)N(C)C2CCN(Cc3ccccc3)C2)nc(C)c1N (centres undefined) | 2.6 | 55% | 77% | 
CC(C)Cc1ccc(C(C)C(=O)O)cc1 (centres undefined) [IBUPROFEN] | 2.97 |  |  | 
CN(C(=O)COc1ccc(Cl)nn1)C1CCN(CC2CC2(F)F)CC1 (centres undefined) | 3.1 | 99% | 105% | Kp at 1 h [3]: 0.92; AUC [4]: 1590 ng·h/mL; Drug metabolism [10]: 0 pmol/min; Time (Rattus norvegicus [11]): 315.5 s; Vd [5]: 4.2 L/kg; half-life [6]: 1.7 h; bioavailability [7]: 73%; clearance [8]: 38.3 mL/min/kg
C[C@@H]1C[C@H]2[C@@H]3CCC4=CC(=O)C=C[C@]4(C)[C@@]3(F)[C@@H](O)C[C@]2(C)[C@@]1(O)C(=O)CO [DEXAMETHASONE] | 2.82 |  |  | 

The next lines start with results.

logP ([1]; read-out: logP) | activity at 10 min, 100 µM (CYP3A4) | Structure (SMILES) | Activity (Rattus norvegicus [2]) | other results
1 | 99% | Cc1nc(OCC(=O)N(C)C2CCN(Cc3ncccn3)CC2)nc(C)c1N | 96% | 
2.2 | 86% | Cc1nc(OCC(=O)N(C)C2CCN(CC3CC3(F)F)CC2)nc(C)c1N.Cl (racemic) | 189% | Kp at 1 h [3]: 0.12; AUC [4]: 1100 ng·h/mL; Vd [5]: 3.2 L/kg; half-life [6]: 2.7 h; bioavailability [7]: 52%; clearance [8]: 38.3 mL/min/kg
2 | 98% | Cc1nc(OCC(=O)N(C)C2CCN(CC(F)F)CC2)nc(C)c1N | 76% | 
 | 60% | Cc1nc(OCC(=O)N(C)C2CCN(Cc3ccccc3)CC2)nc(C)c1N |  | Kp at 1 h [3]: 0.15; AUC [9]: 3700 ng·h/mL; Drug metabolism [10]: 7.2 pmol/min; Time (Rattus norvegicus [11]): 307 s; Vd [5]: 2.3 L/kg; half-life [6]: 1.4 h; bioavailability [12]: 70%; clearance [8]: 41.7 mL/min/kg
1.7 | 62% | Cc1nc(OCC(=O)N(C)C2CCN(Cc3ncccc3F)CC2)nc(C)c1N | 119% | 
2.6 | 75% | Cc1nc(OCC(=O)N(C)C2CCN(CC(F)(F)F)CC2)nc(C)c1N | 103% | 
1.1 | 95% | Cc1nc(OCC(=O)N(C)C2CCN(C3COC3)CC2)nc(C)c1N | 78% | 
0.7 | 97% | Cc1nc(OCC(=O)N(C)C2CCN(CC(C)(C)O)CC2)nc(C)c1N | 74% | 
1.2 | 97% | Cc1nc(OCC(=O)N(C)C2CCN(C3(C)COC3)CC2)nc(C)c1N | 59% | 
